According to patent US20220389003A1, “4-SUBSTITUTED INDOLE AND INDAZOLE SULFONAMIDO DERIVATIVES AS PARG INHIBITORS” (IDEAYA BIOSCIENCES, INC., priority 2019, published 2022):

Key:
PARG [1] = target: T1, PARG (Homo sapiens, UniProt Q86W56); test: Inhibition of PARG enzymatic assay (TR-FRET enzymatic IC50 assay); format: biochemical; design: purchased Peak Proteins; conditions: hPARG 250 pM, biotinylated-PARylated PARP substrate 30 nM
Protocol: PARG enzyme was incubated with compound or vehicle (DMSO) and the biotinylated-PARylated PARP substrate in a microtiter plate. After adding detection antibody and streptavidin-europium, and then incubating, the plate was read for fluorescence intensity. The low control (DMSO) with low fluorescence intensity represents no inhibition of enzymatic reaction while the high control (no enzyme) with high fluorescence intensity represents full inhibition of enzymatic reaction.
• PARG • hPARG: 250 pM, His-tagged, Peak Proteins, 0.96 mg/mL (8.58 μM) • Substrate: 30 nM • Reaction time: 70 minutes • Substrate: hPARP1, His- and TEV-tagged, Peak Proteins, 14 μM • Detection Antibody: anti-His monoclonal antibody-ULight, Perkin Elmer catalog #TRF0105-M • Streptavidin-Europium: Perkin Elmer catalog #AD0062 • Assay buffer: 50 mM Tris-HCl pH 7.4, 50 mM KCl, 3 mM EDTA, 0.4 mM EGTA, 1 mM DTT, 0.01% Tween 20, 0.01% BSA • Temperature: 23° C. • Total volume: 20 μL
• 0% inhibition control: DMSO • 100% inhibition control: No enzyme
• 1. Transfer 5 μL of 3× final concentration of test compounds or DMSO to the appropriate wells of a microtiter plate. • 2. Centrifuge the plate at 1000 rpm for 1 minute. • 3. Transfer 5 μL of 3× final concentration of enzyme in assay buffer or assay buffer alone to the appropriate wells. • 4. Centrifuge the plate at 1000 rpm for 1 minute. • 5. Incubate the plate at room temperature for 1 hour. • 6. Transfer 5 μL of 3× substrate in assay buffer to all the test wells. • 7. Centrifuge the plate at 1000 rpm for 1 minute. • 8. Incubate the plate at room temperature for 10 minutes. • 9. Transfer 5 μL of 3× mixture of detection antibody and streptavidin-europium in assay buffer to all the test wells. • 10. Centrifuge the plate at 1000 rpm for 1 minute. • 11. Incubate the plate at room temperature for 1 hour. • 12. Read the plate on a plate reader (e.g., Infinite M1000).

PARG [2] = target: T1, PARG; test: Inhibition of PARG cellular assay (PAR foci in HeLa cells after MMS); format: cell-based; design: endogenous in cells; host or cells: HeLa; conditions: compound 1 h then MMS 1 h
Protocol: The ability of the compounds disclosed herein to inhibit PARG was determined as described below. Briefly, after treating HeLa cells with the compounds of the disclosure for 1 h, followed by treatment with DNA alkylating agent methylmethanesulfonate (MMS) for an additional 1 h, the cells were fixed in 3.7% formaldehyde. The cells were permeabilized in 0.5% Triton-X100, blocked in 5% goat serum, and incubated with mouse monoclonal antibody against poly (ADP) ribose (PAR) polymer overnight at 4° C. The cells were washed and incubated with an Alexafluor 488-linked secondary antibody together with a nuclear stain (Hoechst 33342) for an hour at room temperature. After washing, images of the cells were captured and analyzed on a high content imaging microscope and software. Two measurement of PAR chain were quantified with the mean intensity over background of the nuclear foci (fluorescent signal at 488 nm range 0.3-2.0 μm foci) quantified as PAR foci (PAR Foci IC50). The cells with a PAR foci signal >1.3 was considered as positive (PAR % positive IC50), and the percentage positive cells are quantified.

T1 sequence (Q86W56 whole entry): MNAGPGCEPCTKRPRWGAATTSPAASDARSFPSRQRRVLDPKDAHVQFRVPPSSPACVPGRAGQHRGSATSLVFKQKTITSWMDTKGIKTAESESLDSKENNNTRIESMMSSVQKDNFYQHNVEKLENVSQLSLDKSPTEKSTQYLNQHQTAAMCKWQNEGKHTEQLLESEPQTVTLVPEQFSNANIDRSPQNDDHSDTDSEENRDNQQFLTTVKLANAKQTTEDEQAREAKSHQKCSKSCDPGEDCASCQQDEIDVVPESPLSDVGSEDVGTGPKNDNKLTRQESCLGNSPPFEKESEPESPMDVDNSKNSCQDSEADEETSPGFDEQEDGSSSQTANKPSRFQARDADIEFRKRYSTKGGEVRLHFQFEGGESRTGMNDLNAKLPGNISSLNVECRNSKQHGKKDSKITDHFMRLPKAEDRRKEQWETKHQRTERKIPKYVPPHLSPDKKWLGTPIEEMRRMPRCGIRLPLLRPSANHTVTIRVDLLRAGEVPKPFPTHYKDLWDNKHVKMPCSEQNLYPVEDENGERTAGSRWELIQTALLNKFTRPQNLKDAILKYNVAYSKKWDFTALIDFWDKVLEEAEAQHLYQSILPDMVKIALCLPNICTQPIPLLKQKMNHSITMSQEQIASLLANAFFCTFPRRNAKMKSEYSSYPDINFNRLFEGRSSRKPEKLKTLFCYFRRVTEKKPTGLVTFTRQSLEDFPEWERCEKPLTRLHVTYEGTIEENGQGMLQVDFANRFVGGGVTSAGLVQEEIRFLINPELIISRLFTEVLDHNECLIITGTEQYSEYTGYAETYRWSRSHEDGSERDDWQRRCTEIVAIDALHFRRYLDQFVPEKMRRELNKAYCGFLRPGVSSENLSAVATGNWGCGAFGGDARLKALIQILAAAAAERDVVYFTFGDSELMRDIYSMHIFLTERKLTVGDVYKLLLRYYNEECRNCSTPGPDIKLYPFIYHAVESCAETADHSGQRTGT

| IC50 (PARG [1]) [nM] | IC50 (PARG [2]) [nM] | SMILES |
| --- | --- | --- |
| 300 to 1000 | 1000 to 10000 | N#CC1(NS(=O)(=O)c2cc(-c3c[nH]cn3)c3cnn(-c4nnc(C(F)F)s4)c3c2)CC1 [Example 9, 1-[({1-[5-(difluoromethyl)(1,3,4-thiadiazol-2-yl)]-4-imidazol-4-yl-1H-indazol-6-yl}sulfonyl)amino]cyclopropanecarbonitrile] |
| 100 to 300 | 1000 to 10000 | N#CC1(NS(=O)(=O)c2cc(-c3ccnnc3)c3cnn(-c4nnc(C(F)F)s4)c3c2)CC1 [Example 10, 1-[({1-[5-(difluoromethyl)(1,3,4-thiadiazol-2-yl)]-4-pyridazin-4-yl-1H-indazol-6-yl}sulfonyl)amino]cyclopropanecarbonitrile] |
| 100 to 300 | 1000 to 10000 | N#CC1(NS(=O)(=O)c2cc(-c3cccnn3)c3cnn(-c4nnc(C(F)F)s4)c3c2)CC1 [Example 11, 1-[({1-[5-(difluoromethyl)(1,3,4-thiadiazol-2-yl)]-4-pyridazin-3-yl-1H-indazol-6-yl}sulfonyl)amino]cyclopropanecarbonitrile] |
| 300 to 1000 | 300 to 1000 | Cn1cnc(-c2cc(S(=O)(=O)NC3(C#N)CC3)cc3c2cnn3-c2nnc(C(F)F)s2)c1 [Example 12, 1-[({1-[5-(difluoromethyl)(1,3,4-thiadiazol-2-yl)]-4-(1-methylimidazol-4-yl)-1H-indazol-6-yl}sulfonyl)amino]cyclopropanecarbonitrile] |
| 300 to 1000 | 300 to 1000 | N#CC1(NS(=O)(=O)c2cc(-c3cscn3)c3cnn(-c4nnc(C(F)F)s4)c3c2)CC1 [Example 13, 1-[({1-[5-(difluoromethyl)(1,3,4-thiadiazol-2-yl)]-4-(1,3-thiazol-4-yl)-1H-indazol-6-yl}sulfonyl)amino]cyclopropanecarbonitrile] |
| 100 to 300 | 1000 to 10000 | N#CC1(NS(=O)(=O)c2cc(-c3ccncc3)c3cnn(-c4nnc(C(F)F)s4)c3c2)CC1 [Example 16, 1-[({1-[5-(difluoromethyl)(1,3,4-thiadiazol-2-yl)]-4-(4-pyridyl)-1H-indazol-6-yl}sulfonyl)amino]cyclopropanecarbonitrile] |
| 300 to 1000 | 1000 to 10000 | N#CC1(NS(=O)(=O)c2cc(-c3cccnc3)c3cnn(-c4nnc(C(F)F)s4)c3c2)CC1 [Example 17, 1-[({1-[5-(difluoromethyl)(1,3,4-thiadiazol-2-yl)]-4-(3-pyridyl)-1H-indazol-6-yl}sulfonyl)amino]cyclopropanecarbonitrile] |
| 100 to 300 | 1000 to 10000 | N#CC1(NS(=O)(=O)c2cc(-c3cnccn3)c3cnn(-c4nnc(C(F)F)s4)c3c2)CC1 [Example 18, 1-[({1-[5-(difluoromethyl)(1,3,4-thiadiazol-2-yl)]-4-pyrazin-2-yl-1H-indazol-6-yl}sulfonyl)amino]cyclopropanecarbonitrile] |
| 300 to 1000 | 1000 to 10000 | COc1cc(-c2cc(S(=O)(=O)NC3(C(N)=O)CC3)cc3c2cnn3-c2nnc(C(F)F)s2)ncn1 [Example 19, 1-[({1-[5-(difluoromethyl)(1,3,4-thiadiazol-2-yl)]-4-(6-methoxypyrimidin-4-yl)-1H-indazol-6-yl}sulfonyl)amino]cyclopropanecarboxamide] |
| 300 to 1000 | 1000 to 10000 | COc1nccc(-c2cc(S(=O)(=O)NC3(C(N)=O)CC3)cc3c2cnn3-c2nnc(C(F)F)s2)n1 [Example 20, 1-[({1-[5-(difluoromethyl)(1,3,4-thiadiazol-2-yl)]-4-(2-methoxypyrimidin-4-yl)-1H-indazol-6-yl}sulfonyl)amino]cyclopropanecarboxamide] |
|  | 300 to 1000 | COc1cc(-c2cc(S(=O)(=O)NC3(C#N)CC3)cc3c2cnn3-c2nnc(C(F)F)s2)ncn1 [Example 22, 1-[({1-[5-(difluoromethyl)(1,3,4-thiadiazol-2-yl)]-4-(6-methoxypyrimidin-4-yl)-1H-indazol-6-yl}sulfonyl)amino]cyclopropanecarbonitrile] |
| 100 to 300 | 300 to 1000 | N#CC1(NS(=O)(=O)c2cc(N3CCC4(CCOC4)CC3)c3cnn(-c4nnc(C(F)F)s4)c3c2)CC1 [Example 29, 1-[({1-[5-(difluoromethyl)(1,3,4-thiadiazol-2-yl)]-4-(2-oxa-8-azaspiro[4.5]dec-8-yl)-1H-indazol-6-yl}sulfonyl)amino]cyclopropanecarbonitrile] |
| 300 to 1000 | 1000 to 10000 | N#CC1(NS(=O)(=O)c2cc(N3CCC4(CCOCC4)CC3)c3cnn(-c4nnc(C(F)F)s4)c3c2)CC1 [Example 30, 1-[({1-[5-(difluoromethyl)(1,3,4-thiadiazol-2-yl)]-4-(9-oxa-3-azaspiro[5.5]undec-3-yl)-1H-indazol-6-yl}sulfonyl)amino]cyclopropanecarbonitrile] |
| 1000 to 10000 |  | N#CC1(NS(=O)(=O)c2cc(N3CCCOCC3)c3cnn(-c4nnc(C(F)F)s4)c3c2)CC1 [Example 42, 1-[({1-[5-(difluoromethyl)(1,3,4-thiadiazol-2-yl)]-4-(1,4-oxazaperhydroepin-4-yl)-1H-indazol-6-yl}sulfonyl)amino]cyclopropanecarbonitrile] |
| 300 to 1000 |  | CN(C)C(=O)C1CN(c2cc(S(=O)(=O)NC3(C#N)CC3)cc3c2cnn3-c2nnc(C(F)F)s2)C1 [Example 55, [1-(1-[5-(difluoromethyl)(1,3,4-thiadiazol-2-yl)]-6-{[(cyanocyclopropyl)amino]sulfonyl}(1H-indazol-4-yl))azetidin-3-yl]-N,N-dimethylcarboxamide] |
| ≤ 100 |  | N#CC1(NS(=O)(=O)c2cc(N3CCN4C(=O)OC[C@@H]4C3)c3cnn(-c4nnc(C(F)F)s4)c3c2)CC1 [Example 62, 1-[({4-((1S)-7-oxo-8-oxa-3,6-diazabicyclo[4.3.0]non-3-yl)-1-[5-(difluoromethyl) (1,3,4-thiadiazol-2-yl)]-1H-indazol-6-yl}sulfonyl)amino]cyclopropanecarbonitrile] |
| 300 to 1000 |  | N#CC1(NS(=O)(=O)c2cc(N3CCCC4(COC4)C3)c3cnn(-c4nnc(C(F)F)s4)c3c2)CC1 [Example 65, 1-[({1-[5-(difluoromethyl)(1,3,4-thiadiazol-2-yl)]-4-(2-oxa-6-azaspiro[3.5]non-6-yl)-1H-indazol-6-yl}sulfonyl)amino]cyclopropanecarbonitrile] |
| 100 to 300 |  | N#CC1(NS(=O)(=O)c2cc(N3CC4COCC(C3)N4)c3cnn(-c4nnc(C(F)F)s4)c3c2)CC1 [Example 70, 1-[({1-[5-(difluoromethyl)(1,3,4-thiadiazol-2-yl)]-4-(7-oxa-3,9-diazabicyclo-[3.3.1]non-3-yl)-1H-indazol-6-yl}sulfonyl)amino]cyclopropanecarbonitrile] |
| 100 to 300 | 1000 to 10000 | CN1Cc2cn(-c3cc(S(=O)(=O)NC4(C#N)CC4)cc4c3cnn4-c3nnc(C(F)F)s3)nc2C1 [Example 73, 1-[({1-[5-(difluoromethyl)(1,3,4-thiadiazol-2-yl)]-4-(5-methyl(3-pyrrolino[3,4-c]pyrazol-2-yl))-1H-indazol-6-yl}sulfonyl)amino]cyclopropanecarbonitrile] |
| 100 to 300 |  | CN(C)C(=O)N1CCCN(c2cc(S(=O)(=O)NC3(C#N)CC3)cc3c2cnn3-c2nnc(C(F)F)s2)CC1 [Example 78, [4-(1-[5-(difluoromethyl)(1,3,4-thiadiazol-2-yl)]-6-{[(cyanocyclopropyl)amino]-sulfonyl}(1H-indazol-4-yl))(1,4-diazaperhydroepinyl)]-N,N-dimethylcarboxamide] |
| 1000 to 10000 | 1000 to 10000 | N#CC1(NS(=O)(=O)c2cc(N3CCCC3)c3cnn(-c4nnc(C(F)F)s4)c3c2)CC1 [Example 101, 1-[({1-[5-(difluoromethyl)(1,3,4-thiadiazol-2-yl)]-4-pyrrolidinyl-1H-indazol-6-yl}sulfonyl)amino]cyclopropanecarbonitrile] |
| 100 to 300 | 300 to 1000 | CN1CCN(c2cc(S(=O)(=O)NC3(C#N)CC3)cc3c2cnn3-c2nnc(C(F)F)s2)CC1 [Example 102, 1-[({1-[5-(difluoromethyl)(1,3,4-thiadiazol-2-yl)]-4-(4-methylpiperazinyl)-1H-indazol-6-yl}sulfonyl)amino]cyclopropanecarbonitrile] |
